Experimental data as given in publication PMC9643853, “Synthesis and evaluation of 3-alkynyl-5-aryl-7-aza-indoles as broad-spectrum antiviral agents” (Frontiers in Chemistry, 2022).
Read-outs that look alike come from different tables or passages of the source.

Key:
U-87 MG cells = tested on: U-87 MG cells; design: method as in Pu et al., 2020; conditions: ref Pu et al., 2020; cited from earlier work
VEEV (TC-83) [1] = conditions: U-87 MG cells; recently reported; ref Pu et al., 2020; cited from earlier work
in vitro [2] = conditions: human
AAK1 = AAK1 (Homo sapiens, UniProt Q2M2I8); test: LanthaScreen Eu Kinase Binding Assay for AAK1
Chain of AAK1 (Q2M2I8 whole entry): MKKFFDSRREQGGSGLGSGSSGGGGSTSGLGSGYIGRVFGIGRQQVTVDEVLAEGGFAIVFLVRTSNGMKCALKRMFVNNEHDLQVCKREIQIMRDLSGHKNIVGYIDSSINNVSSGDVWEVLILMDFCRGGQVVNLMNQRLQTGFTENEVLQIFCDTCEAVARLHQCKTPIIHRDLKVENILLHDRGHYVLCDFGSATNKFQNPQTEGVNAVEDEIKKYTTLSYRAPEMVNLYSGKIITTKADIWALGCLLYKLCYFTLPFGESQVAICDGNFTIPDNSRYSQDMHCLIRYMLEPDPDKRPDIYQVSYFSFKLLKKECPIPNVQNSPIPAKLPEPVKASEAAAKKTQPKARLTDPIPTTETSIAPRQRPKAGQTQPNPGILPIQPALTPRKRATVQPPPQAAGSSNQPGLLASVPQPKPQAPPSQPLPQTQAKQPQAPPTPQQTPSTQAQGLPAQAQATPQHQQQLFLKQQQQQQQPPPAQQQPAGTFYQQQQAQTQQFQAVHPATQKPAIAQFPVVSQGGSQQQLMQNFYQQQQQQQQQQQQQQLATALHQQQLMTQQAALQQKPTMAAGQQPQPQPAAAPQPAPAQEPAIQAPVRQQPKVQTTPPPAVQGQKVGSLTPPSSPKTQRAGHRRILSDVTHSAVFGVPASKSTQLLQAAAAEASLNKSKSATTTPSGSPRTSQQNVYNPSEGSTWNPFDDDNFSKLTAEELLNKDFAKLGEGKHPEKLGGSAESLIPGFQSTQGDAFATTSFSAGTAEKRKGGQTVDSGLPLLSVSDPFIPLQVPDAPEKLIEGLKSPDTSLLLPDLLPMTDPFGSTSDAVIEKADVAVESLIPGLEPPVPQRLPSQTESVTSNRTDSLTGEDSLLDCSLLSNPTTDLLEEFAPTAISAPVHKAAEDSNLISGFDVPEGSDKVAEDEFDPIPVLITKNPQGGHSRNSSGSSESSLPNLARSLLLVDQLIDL

VEEV (TC-83) [3] = test: microbe, parasite or virus in culture; assay type: cell-based; conditions: Venezuelan equine encephalitis virus, U-87 MG, 18 h, read-out: VEEV EC50
in vitro [4] = conditions: human; remark: listed apart in the source
[5] = molecular target: adaptor-associated kinase 1 (AAK1); design: method as in Verdonck et al., 2019; conditions: ref Verdonck et al., 2019; read-out: AAK1 IC50 (enzymatic assay); cited from earlier work
RSV-A [6] = test: RSV-A cytopathic effect (CPE) reduction assay in HEp-2 cells, MTS read-out; assay type: cell-based, human respiratory syncytial virus, RSV-A strain Long
RSV-A [7] = test: Anti-RSV-A activity in A549 cells, viral RNA in supernatant by RT-qPCR; assay type: cell-based, RSV-A strain Long; conditions: human respiratory syncytial virus, read-out: RSV-A EC50 (A549, viral RNA levels)
in vitro [8] = conditions: African green monkey
SARS-CoV-2 = test: microbe, parasite or virus in culture; assay type: cell-based, SARS-CoV-2 BetaCov/Belgium/GHB-03021/2020; conditions: Severe acute respiratory syndrome coronavirus 2, 96 h, read-out: SARS-CoV-2 EC50
[9] = human respiratory syncytial virus, HEp-2, 96 h, read-out: RSV-A EC50
[10] = 120 h, A549 cells, RT-qPCR of culture supernatant, MOI 0.1, 5 days
[11] = human respiratory syncytial virus, HEp-2, 96 h; read-out: RSV-A EC50

| SMILES | CC50 (U-87 MG cells) [µM] | EC50 (VEEV (TC-83) [1]) [µM] | CC50 (in vitro [2]) [µM] | IC50 (AAK1) [µM] | EC50 (VEEV (TC-83) [3]) [µM] | CC50 at 4 days (in vitro [4]) [µM] | IC50 [5] [µM] | selectivity index (SI) (RSV-A [6]; CC50 HEp-2 / EC50 RSV-A) | EC50 (RSV-A [6]; [9]) [µM] | EC50 (RSV-A [7]; A549, 120 h) [µM] | AAK1 affinity (in words) (AAK1) | EC50 (RSV-A [7]; [10]) [µM] | CC50 (in vitro [8]) [µM] | EC50 (RSV-A [6]; [11]) [µM] | EC50 (SARS-CoV-2) [µM] |
| --- | --- | --- | --- | --- | --- | --- | --- | --- | --- | --- | --- | --- | --- | --- | --- |
| COc1cc(O)c2c(c1)/C=C/C[C@H](O)[C@H](O)C(=O)/C=C\C[C@H](C)OC2=O [5Z-7-Oxozeanol] | > 10 | 2.66 ± 0.13 | – | – | – | – | – | – | – | – | – | – | – | – | – |
| COc1ccc(-c2cnc3[nH]cc(C#Cc4cccnc4)c3c2)cc1OC [Compound 1] | – | – | > 10 | 0.0042 | 1.22 ± 0.22 | 2 | 0.004 | 10.5 | 0.19 ± 0.13 | – | – | – | – | – | – |
| COc1cc(OC)cc(-c2cnc3[nH]cc(C#Cc4cccnc4)c3c2)c1 [Compound 4d] | – | – | > 10 | 0.0062 | > 10 | > 50 | – | 90 | 0.55 ± 0.41 | 0.05 | low nanomolar AAK1 affinity | – | – | – | – |
| CCNC(=O)c1ccc(-c2cnc3[nH]cc(C#Cc4cccnc4)c3c2)cc1 [Compound 8b] | – | – | > 10 | 0.004 | 6.01 ± 1.81 | 50 | – | – | – | – | low nanomolar AAK1 affinity | 0.01 | > 100 | 0.3 ± 0.28 | 0.58 ± 0.05 |
| CNC(=O)c1cccc(-c2cnc3[nH]cc(C#Cc4cccnc4)c3c2)c1 [Compound 8e] | – | – | > 10 | 0.0035 | > 10 | > 50 | – | – | – | – | low nanomolar AAK1 affinity | 0.2 | – | 0.29 ± 0.32 | – |
| O=C(NC1CC1)c1cccc(-c2cnc3[nH]cc(C#Cc4cccnc4)c3c2)c1 [Compound 8f] | – | – | > 10 | 0.0054 | 2.75 ± 1.22 | > 50 | – | – | – | – | low nanomolar AAK1 affinity | 0.59 | – | 0.16 ± 0.025 | – |
| CCN(CC)C(=O)c1cccc(-c2cnc3[nH]cc(C#Cc4cccnc4)c3c2)c1 [Compound 8k] | – | – | > 10 | – | > 10 | 4.04 ± 0.14 | – | – | – | – | – | – | 88.5 ± 1.41 | 0.97 ± 0.18 | 10.2 ± 0.14 |
| Cc1cncc(C#Cc2c[nH]c3ncc(-c4cccc(C(=O)NC5CC5)c4)cc23)c1 [Compound 9c] | – | – | > 10 | – | 1.8 ± 0.32 | > 50 | – | – | – | – | – | – | > 100 | 0.18 ± 0.085 | 1.82 ± 0.83 |
